Source: patent US20210403485A1, “PYRAZOLOPYRIMIDINE DERIVATIVE AS SELECTIVE TRK INHIBITOR” (SHANDONG LUYE PHARMACEUTICAL CO., LTD., priority 2018, published 2021)

What was measured:
Ba/F3 LMNA-NTRK1-WT = target: T1, Ba/F3 LMNA-NTRK1-WT (Homo sapiens, UniProt P04629); assay: Inhibitory activity against cell proliferation (CellTiter-Glo, 72 hours); type: cell-based; settings: read-out: Half maximal inhibitory concentration IC50 of cells, Ba/F3 LMNA-NTRK1-WT
T1 construct: fused on or other part: N-terminal part of LMNA as fusion partner (part of the key); P02545 (Prelamin-A/C)
T1 sequence (P04629 whole entry, stated change not applied, the tested form may be a part): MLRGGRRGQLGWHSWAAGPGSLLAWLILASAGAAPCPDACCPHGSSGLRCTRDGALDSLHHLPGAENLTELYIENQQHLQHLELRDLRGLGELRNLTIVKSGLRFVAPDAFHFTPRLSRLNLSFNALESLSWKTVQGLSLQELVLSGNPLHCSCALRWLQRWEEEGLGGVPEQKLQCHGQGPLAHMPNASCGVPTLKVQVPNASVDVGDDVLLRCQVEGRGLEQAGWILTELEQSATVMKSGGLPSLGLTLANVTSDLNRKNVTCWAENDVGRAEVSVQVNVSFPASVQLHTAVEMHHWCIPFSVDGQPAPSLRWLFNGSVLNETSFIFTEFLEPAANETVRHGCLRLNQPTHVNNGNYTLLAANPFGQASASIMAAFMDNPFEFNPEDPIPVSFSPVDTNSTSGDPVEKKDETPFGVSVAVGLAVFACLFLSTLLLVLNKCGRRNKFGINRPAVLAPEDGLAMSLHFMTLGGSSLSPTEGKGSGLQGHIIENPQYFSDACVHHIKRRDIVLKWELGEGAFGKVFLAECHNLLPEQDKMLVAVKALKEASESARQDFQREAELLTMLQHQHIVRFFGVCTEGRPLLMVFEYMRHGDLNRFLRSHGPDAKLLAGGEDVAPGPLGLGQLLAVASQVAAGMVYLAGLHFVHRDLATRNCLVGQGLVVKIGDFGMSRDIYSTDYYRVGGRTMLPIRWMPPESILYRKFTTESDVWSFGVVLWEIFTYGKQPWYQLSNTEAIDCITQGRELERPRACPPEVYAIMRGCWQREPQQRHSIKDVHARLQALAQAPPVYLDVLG
Procedure, shortened: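 Log-phase Ba/F3 cells (trypan blue viability above 90%) were treated in triplicate with a 9-point, 3-fold compound series. ATP-dependent luminescence was read after CellTiter-Glo addition, and IC50 values came from nonlinear sigmoidal dose-response fits.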

TrkA-G595R = target: T2, TrkA-G595R (Homo sapiens, UniProt P04629, G595R); assay: Kinase inhibitory activity (33P-ATP, filtration-binding method, Reaction Biology Corp.); type: biochemical
T2 construct: purchased Reaction Biology Corp
T2 sequence (P04629 33-796 G595R): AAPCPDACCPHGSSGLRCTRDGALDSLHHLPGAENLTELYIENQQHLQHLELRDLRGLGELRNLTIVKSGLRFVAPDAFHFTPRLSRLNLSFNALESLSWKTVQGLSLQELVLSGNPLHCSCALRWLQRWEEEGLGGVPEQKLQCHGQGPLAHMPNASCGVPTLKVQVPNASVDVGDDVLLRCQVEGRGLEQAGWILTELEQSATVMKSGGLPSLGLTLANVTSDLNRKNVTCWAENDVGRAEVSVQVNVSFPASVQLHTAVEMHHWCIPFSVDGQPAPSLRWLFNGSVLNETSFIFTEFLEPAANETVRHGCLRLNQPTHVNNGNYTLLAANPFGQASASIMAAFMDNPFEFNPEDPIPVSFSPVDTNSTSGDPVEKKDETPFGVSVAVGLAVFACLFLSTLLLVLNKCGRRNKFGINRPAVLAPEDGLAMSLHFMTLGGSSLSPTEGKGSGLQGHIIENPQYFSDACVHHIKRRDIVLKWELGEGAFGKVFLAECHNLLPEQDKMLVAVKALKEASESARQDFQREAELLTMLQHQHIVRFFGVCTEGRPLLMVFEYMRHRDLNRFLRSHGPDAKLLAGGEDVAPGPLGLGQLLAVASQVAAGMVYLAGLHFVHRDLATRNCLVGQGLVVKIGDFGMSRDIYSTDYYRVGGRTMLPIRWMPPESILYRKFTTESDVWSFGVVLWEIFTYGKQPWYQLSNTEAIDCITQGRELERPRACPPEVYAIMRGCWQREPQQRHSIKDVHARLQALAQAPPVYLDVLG
Procedure, shortened: (§1)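 Radiometric kinase assay: enzyme-compound mixture preincubated 20 minutes at room temperature, then reaction started with ^33P-ATP and run 120 minutes at room temperature. Filtration-binding readout. Activity expressed relative to DMSO control; IC50 from fitted dose-response curves.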

TrkC = target: T3, TrkC (Homo sapiens, UniProt Q16288); assay: as above; type: biochemical
T3 construct: purchased Reaction Biology Corp
T3 sequence (Q16288 32-839): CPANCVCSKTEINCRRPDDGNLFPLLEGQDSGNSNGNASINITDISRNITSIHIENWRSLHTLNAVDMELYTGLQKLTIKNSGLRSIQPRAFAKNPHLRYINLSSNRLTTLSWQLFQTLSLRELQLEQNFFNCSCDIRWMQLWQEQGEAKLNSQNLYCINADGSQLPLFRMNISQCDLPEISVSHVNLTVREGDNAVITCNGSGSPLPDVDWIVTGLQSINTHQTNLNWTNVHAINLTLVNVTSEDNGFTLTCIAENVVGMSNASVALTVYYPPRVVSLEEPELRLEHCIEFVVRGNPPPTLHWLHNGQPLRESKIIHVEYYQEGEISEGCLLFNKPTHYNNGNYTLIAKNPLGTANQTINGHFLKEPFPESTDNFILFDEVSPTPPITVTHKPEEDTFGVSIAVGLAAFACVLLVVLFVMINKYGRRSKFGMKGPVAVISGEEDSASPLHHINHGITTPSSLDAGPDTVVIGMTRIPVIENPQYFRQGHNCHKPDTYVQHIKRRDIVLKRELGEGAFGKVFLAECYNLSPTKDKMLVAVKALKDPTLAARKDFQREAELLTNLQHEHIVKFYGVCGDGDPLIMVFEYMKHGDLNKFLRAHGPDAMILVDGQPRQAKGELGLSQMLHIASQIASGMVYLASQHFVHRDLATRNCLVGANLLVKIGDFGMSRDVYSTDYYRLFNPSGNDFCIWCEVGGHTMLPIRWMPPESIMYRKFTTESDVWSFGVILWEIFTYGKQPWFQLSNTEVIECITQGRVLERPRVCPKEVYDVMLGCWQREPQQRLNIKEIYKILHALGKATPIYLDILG
Procedure, shortened: as §1

TrkA-G667C = target: T4, TrkA-G667C (Homo sapiens, UniProt P04629, G667C); assay: as above; type: biochemical
T4 construct: purchased Reaction Biology Corp
T4 sequence (P04629 33-796 G667C): as the sequence (P04629 33-796 G595R) above, with R563G, G635C counted along it
Procedure, shortened: as §1

TrkA = target: T5, TrkA (Homo sapiens, UniProt P04629); assay: as above; type: biochemical
T5 construct: purchased Reaction Biology Corp
T5 sequence (P04629 33-796): as the sequence (P04629 33-796 G595R) above, with R563G counted along it
Procedure, shortened: as §1

Ros1 = target: T6, Ros1 (Homo sapiens, UniProt P08922); assay: as above; type: biochemical
T6 construct: purchased Reaction Biology Corp
T6 sequence (P08922 28-2347): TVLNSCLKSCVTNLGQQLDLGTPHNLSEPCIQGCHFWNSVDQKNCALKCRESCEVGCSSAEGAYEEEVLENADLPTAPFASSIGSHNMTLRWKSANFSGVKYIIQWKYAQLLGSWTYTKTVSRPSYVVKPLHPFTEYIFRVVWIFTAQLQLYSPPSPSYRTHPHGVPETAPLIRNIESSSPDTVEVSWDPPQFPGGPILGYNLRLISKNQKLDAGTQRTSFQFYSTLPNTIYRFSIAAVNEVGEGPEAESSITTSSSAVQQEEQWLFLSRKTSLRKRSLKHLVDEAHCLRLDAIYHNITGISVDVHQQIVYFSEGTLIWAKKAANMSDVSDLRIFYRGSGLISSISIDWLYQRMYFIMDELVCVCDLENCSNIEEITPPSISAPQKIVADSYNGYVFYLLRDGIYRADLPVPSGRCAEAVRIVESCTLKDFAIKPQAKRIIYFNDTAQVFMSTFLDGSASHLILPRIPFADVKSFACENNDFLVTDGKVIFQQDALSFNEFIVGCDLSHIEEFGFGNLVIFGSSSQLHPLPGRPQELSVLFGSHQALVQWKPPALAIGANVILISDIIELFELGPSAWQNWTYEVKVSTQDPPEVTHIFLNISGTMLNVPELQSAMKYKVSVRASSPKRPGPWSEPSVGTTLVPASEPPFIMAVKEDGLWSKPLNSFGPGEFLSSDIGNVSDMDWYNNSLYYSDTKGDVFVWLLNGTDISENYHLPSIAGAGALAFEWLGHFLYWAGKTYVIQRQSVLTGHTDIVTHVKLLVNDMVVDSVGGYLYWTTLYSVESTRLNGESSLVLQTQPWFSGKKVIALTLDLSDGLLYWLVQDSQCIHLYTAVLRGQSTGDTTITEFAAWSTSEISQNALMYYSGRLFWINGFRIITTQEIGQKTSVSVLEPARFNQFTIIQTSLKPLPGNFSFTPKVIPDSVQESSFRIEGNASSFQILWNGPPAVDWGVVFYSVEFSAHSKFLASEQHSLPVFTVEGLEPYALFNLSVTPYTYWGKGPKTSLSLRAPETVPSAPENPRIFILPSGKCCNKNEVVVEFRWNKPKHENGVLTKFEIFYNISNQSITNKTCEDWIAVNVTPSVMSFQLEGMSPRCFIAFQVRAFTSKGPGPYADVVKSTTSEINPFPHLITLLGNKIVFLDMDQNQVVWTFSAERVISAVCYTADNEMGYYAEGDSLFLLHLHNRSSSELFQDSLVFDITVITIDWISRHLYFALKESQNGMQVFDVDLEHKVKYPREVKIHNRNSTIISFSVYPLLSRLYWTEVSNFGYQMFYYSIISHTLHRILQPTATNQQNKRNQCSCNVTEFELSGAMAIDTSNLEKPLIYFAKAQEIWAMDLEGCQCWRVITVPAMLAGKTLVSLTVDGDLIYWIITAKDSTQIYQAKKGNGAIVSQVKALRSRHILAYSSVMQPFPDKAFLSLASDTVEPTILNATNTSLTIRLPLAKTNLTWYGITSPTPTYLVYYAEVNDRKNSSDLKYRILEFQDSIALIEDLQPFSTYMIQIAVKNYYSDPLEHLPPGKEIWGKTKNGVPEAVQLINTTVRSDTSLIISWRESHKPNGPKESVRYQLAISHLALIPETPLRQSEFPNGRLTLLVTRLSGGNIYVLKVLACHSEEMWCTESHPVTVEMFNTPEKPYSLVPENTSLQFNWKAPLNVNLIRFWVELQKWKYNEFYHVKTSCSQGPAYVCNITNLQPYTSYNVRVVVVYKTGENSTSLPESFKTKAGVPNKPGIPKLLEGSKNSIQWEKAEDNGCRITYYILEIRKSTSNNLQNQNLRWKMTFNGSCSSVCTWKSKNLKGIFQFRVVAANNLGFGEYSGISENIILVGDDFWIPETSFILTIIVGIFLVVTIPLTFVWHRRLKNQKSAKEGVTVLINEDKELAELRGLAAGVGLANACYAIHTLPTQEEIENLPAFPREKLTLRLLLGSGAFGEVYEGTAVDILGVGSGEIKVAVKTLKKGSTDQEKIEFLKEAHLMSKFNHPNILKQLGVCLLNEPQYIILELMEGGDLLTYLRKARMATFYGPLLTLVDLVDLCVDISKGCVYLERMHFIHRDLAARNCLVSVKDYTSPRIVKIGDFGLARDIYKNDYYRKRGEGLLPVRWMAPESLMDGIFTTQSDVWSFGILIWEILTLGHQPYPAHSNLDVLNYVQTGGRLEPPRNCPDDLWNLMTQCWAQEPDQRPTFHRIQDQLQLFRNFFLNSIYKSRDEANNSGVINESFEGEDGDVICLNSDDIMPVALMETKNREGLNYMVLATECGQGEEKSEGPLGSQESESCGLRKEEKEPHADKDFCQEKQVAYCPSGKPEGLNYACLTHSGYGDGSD
Procedure, shortened: as §1

| Compound | GI50 (Ba/F3 LMNA-NTRK1-WT) [nM] | IC50 (TrkA-G595R) [nM] | IC50 (TrkC) [nM] | IC50 (TrkA-G667C) [nM] | IC50 (TrkA) [nM] | IC50 (Ros1) [nM] |
| --- | --- | --- | --- | --- | --- | --- |
| O=C1NC2(CC2)COc2ncc(F)cc2C2COCCN2c2ccn3ncc1c3n2 (single isomer, unassigned) [WX001B] | 0.6 | 3.5 | 0.2 | 2.3 | 2.4 | 1 |
| C[C@@H]1CCc2ncc(F)cc2[C@H]2CCCN2c2ccn3ncc(c3n2)C(=O)N1 [LOXO-195, reference compound] | 4.9 | – | – | – | – | – |
